According to BigSolDB 2.1:

CC1=NNC(=O)N(/N=C/c2cccnc2)C1
solubility (mole fraction)
Settings	278.15 K	283.15 K	288.15 K	293.15 K	298.15 K	303.15 K	308.15 K	313.15 K	318.15 K
in 1,4-dioxane	–	–	0.000462	0.00054	0.000629	0.000728	0.000842	0.000964	0.0011
in DMF	0.0031	0.00347	0.00398	0.00451	0.00515	0.00582	0.00656	0.00738	0.00832
in DMSO	–	–	–	0.00762	0.00862	0.00985	0.0112	0.0126	0.0144
in NMP	0.00163	0.00189	0.0022	0.00255	0.00295	0.00338	0.00389	0.00444	0.00506
in isopropanol	0.000198	0.000232	0.00028	0.000331	0.000391	0.000461	0.00054	0.000625	0.000729
in n-butanol	0.000159	0.00019	0.000229	0.000277	0.000332	0.000389	0.00046	0.000537	0.000635
